Measured values taken from patent US20250332149A1, “PIPERIDINE COMPOUNDS AND PHARMACEUTICAL COMPOSITIONS” (Lumos Pharma, Inc., priority 2024, published 2025).

Experiment: Phase 1 study Part 1: plasma PK and relative bioavailability of LUM-201 tablets vs capsule
Type: in vivo, human
Conditions: for % AUCex, Arithmetic Mean / % AUCex, Geometric Mean / Clast, Arithmetic Mean / Clast, Geometric Mean / DNAUC0-inf, Arithmetic Mean / DNAUC0-inf, Geometric Mean / DNAUC0-last, Arithmetic Mean / DNAUC0-last, Geometric Mean / DNCmax, Arithmetic Mean / DNCmax, Geometric Mean / tlag, Median / tlast, Median / λz, Arithmetic Mean / λz, Geometric Mean / DNAUC0-inf, GLS Mean / DNAUC0-last, GLS Mean / DNCmax, GLS Mean: oral, fasted; for DNAUC0-inf, GLS Mean / DNAUC0-last, GLS Mean / DNCmax, GLS Mean: ANOVA
Description: This study in healthy adult subjects was designed to establish the pharmacokinetic (PK) and pharmacodynamic (PD) profiles for the orally administered test product (coated mini-tablets in a capsule) and reference product (mini-tablet) to evaluate relative bioavailability in Part 1 and to evaluate the food effect on the bioavailability of test product (capsule only) in Part 2.
This was a single center, open-label, randomized, Phase 1 study in healthy adult subjects. This study consisted of 2 parts: Part 1 was a 4-sequence, 4-treatment, 4 Treatment Periods, crossover study to determine the relative bioavailability of current tablets to new capsule formulations of LUM-201; Part 2 was a 2-sequence, 2-treatment, 2 Treatment Periods, crossover study to evaluate the food effect on the bioavailability of the new capsule formulation of LUM-201. An individual subject was allowed to participate in only 1 part (Part 1 or Part 2) of the study. Forty subjects were planned and enrolled in this study. • Part 1: A total of 28 subjects were planned and enrolled in Part 1. Part 1 consisted of 4 sequences, each having 4 Treatment Periods enrolling 7 subjects (1:1:1:1 ratio). During Treatment Periods 1 through 4, each subject received 4 single oral doses of LUM-201 drug product in a randomized, crossover order. • Part 2: A total of 12 subjects were planned and enrolled in Part 2. Part 2 consisted of 2 sequences, each having 2 Treatment Periods enrolling 6 subjects (1:1 ratio). Each subject received a single oral dose of LUM-201 at each Treatment Period. During Treatment Periods 1 and 2, each subject received 2 single oral doses of LUM-201 in a randomized, crossover order. • On Day 1 of Treatment Period 1, subjects were administered the assigned treatment (A or B) as randomized, followed by a washout of at least 3 days between Treatment Periods 1 and 2. Subjects stayed in-house (not discharged) between the Treatment Periods. • Treatment A was dosed at 85.3 mg capsule formulation of LUM-201 (intact capsule consumed unopened) consumed while subject was in a fasted state with 240 mL of water. • Treatment B was dosed at 85.3 mg capsule formulation of LUM-201 (intact capsule consumed unopened) consumed 30 minutes after start of a high-fat meal with 240 mL of water. • Subjects were discharged from the study center on the morning of Day 3 of Treatment Period 2 after the scheduled study assessments had been completed.
• Treatment A (reference): five 18 mg oral tablets of LUM-201 were administered under fasted state with 240 mL of water. • Treatment B (test): a single 85.3 mg dose of oral capsule formulation of LUM-201 was administered as a whole capsule under fasted state with 240 mL of water. • Treatment C (test): a single 85.3 mg dose of oral capsule formulation of LUM-201 was administered by dosing capsule contents (dry) under fasted state with 240 mL of water. • Treatment D (test): a single 85.3 mg dose of oral capsule formulation of LUM-201 was mixed (capsule contents) with banana puree (2 teaspoons), followed by 240 mL of water and was ingested within 5 minutes under fasted state (Note: Banana Puree, single serve cup was used [118.3 mL]). […]

[1] = 85.3 mg capsule, Treatments B, C and D
[2] = Part 1, Treatment A (reference): five 18 mg tablets (90 mg)
[3] = Part 1, Treatment B (test): 85.3 mg whole capsule
[4] = Part 1, Treatment C (test): 85.3 mg capsule contents (dry)
[5] = Part 1, Treatment D (test): 85.3 mg capsule contents in banana puree

CC(C)(N)C(=O)N[C@H](COCc1ccccc1)C(=O)N1CCC2(CC1)CN(S(C)(=O)=O)c1ccccc12 [LUM-201, N-[1(R)-[(1,2-dihydro-1-methanesulfonylspiro[3H-indole-3,4′-piperdin]-yl)carbonyl]-2-(phenylmethyloxy)ethyl]-2-amino-2-methylpropanamide methanesulfonate]
bioequivalence of DNAUC0-last and AUC0-inf to the 90 mg tablet, fasted (Treatment A) [1]: bioequivalent
bioequivalence of DNCmax to the 90 mg tablet dose, fasted (Treatment A) [1]: not bioequivalent
% AUCex, Arithmetic Mean [2]: 1.763%
% AUCex, Geometric Mean [2]: 1.652%
Clast, Arithmetic Mean [2]: 0.8783 ng/mL
Clast, Geometric Mean [2]: 0.8225 ng/mL
DNAUC0-inf, Arithmetic Mean [2]: 6.998 ng·h/mL/mg
DNAUC0-inf, Geometric Mean [2]: 6.247 ng·h/mL/mg
DNAUC0-last, Arithmetic Mean [2]: 6.885 ng·h/mL/mg
DNAUC0-last, Geometric Mean [2]: 6.137 ng·h/mL/mg
DNCmax, Arithmetic Mean [2]: 1.464 ng/mL/mg
DNCmax, Geometric Mean [2]: 1.267 ng/mL/mg
tlag, Median [2]: 0 h
tlast, Median [2]: 36.34 h
λz, Arithmetic Mean [2]: 0.0901 h⁻¹
λz, Geometric Mean [2]: 0.0886 h⁻¹
DNAUC0-inf, GLS Mean [2]: 6.25 ng·h/mL/mg
DNAUC0-last, GLS Mean [2]: 6.14 ng·h/mL/mg
DNCmax, GLS Mean [2]: 1.27 ng/mL/mg
% AUCex, Arithmetic Mean [3]: 1.748%
% AUCex, Geometric Mean [3]: 1.630%
Clast, Arithmetic Mean [3]: 0.7461 ng/mL
Clast, Geometric Mean [3]: 0.7189 ng/mL
DNAUC0-inf, Arithmetic Mean [3]: 6.638 ng·h/mL/mg
DNAUC0-inf, Geometric Mean [3]: 6.008 ng·h/mL/mg
DNAUC0-last, Arithmetic Mean [3]: 6.534 ng·h/mL/mg
DNAUC0-last, Geometric Mean [3]: 5.903 ng·h/mL/mg
DNCmax, Arithmetic Mean [3]: 1.353 ng/mL/mg
DNCmax, Geometric Mean [3]: 1.092 ng/mL/mg
tlag, Median [3]: 0.2494 h
tlast, Median [3]: 47.93 h
λz, Arithmetic Mean [3]: 0.0877 h⁻¹
λz, Geometric Mean [3]: 0.086 h⁻¹
DNAUC0-inf, GLS Mean [3]: 5.97 ng·h/mL/mg
DNAUC0-last, GLS Mean [3]: 5.86 ng·h/mL/mg
DNCmax, GLS Mean [3]: 1.09 ng/mL/mg
% AUCex, Arithmetic Mean [4]: 1.859%
% AUCex, Geometric Mean [4]: 1.673%
Clast, Arithmetic Mean [4]: 0.7612 ng/mL
Clast, Geometric Mean [4]: 0.7309 ng/mL
DNAUC0-inf, Arithmetic Mean [4]: 6.832 ng·h/mL/mg
DNAUC0-inf, Geometric Mean [4]: 6.259 ng·h/mL/mg
DNAUC0-last, Arithmetic Mean [4]: 6.721 ng·h/mL/mg
DNAUC0-last, Geometric Mean [4]: 6.142 ng·h/mL/mg
DNCmax, Arithmetic Mean [4]: 1.159 ng/mL/mg
DNCmax, Geometric Mean [4]: 1.014 ng/mL/mg
tlag, Median [4]: 0 h
tlast, Median [4]: 48.07 h
λz, Arithmetic Mean [4]: 0.0829 h⁻¹
λz, Geometric Mean [4]: 0.0818 h⁻¹
DNAUC0-inf, GLS Mean [4]: 6.21 ng·h/mL/mg
DNAUC0-last, GLS Mean [4]: 6.10 ng·h/mL/mg
DNCmax, GLS Mean [4]: 1.01 ng/mL/mg
% AUCex, Arithmetic Mean [5]: 1.932%
% AUCex, Geometric Mean [5]: 1.703%
Clast, Arithmetic Mean [5]: 0.8723 ng/mL
Clast, Geometric Mean [5]: 0.7962 ng/mL
DNAUC0-inf, Arithmetic Mean [5]: 7.377 ng·h/mL/mg
DNAUC0-inf, Geometric Mean [5]: 6.400 ng·h/mL/mg
DNAUC0-last, Arithmetic Mean [5]: 7.254 ng·h/mL/mg
